Positions of bridges follow the written chain, without caps; N, C: chain ends. Residues, ends and D or L forms follow the SMILES beside them.
Key:
HA-OGR1 (GPR68) = biological target: T1, HA-OGR1 (GPR68) (Homo sapiens, UniProt Q15743); assay: Ca2+ mobilization assay (Fluo-4); assay type: cell-based; details: GPR68, data from resynthesized peptide, mean, SEM and n; for Emax: read-out: Emax, Ca2+ mobilization (% iono); for EC50: read-out: pEC50, Ca2+ mobilization (% iono) (converted)
T1 construct: HA; expressed in transfected cells
T1 sequence (Q15743 whole entry): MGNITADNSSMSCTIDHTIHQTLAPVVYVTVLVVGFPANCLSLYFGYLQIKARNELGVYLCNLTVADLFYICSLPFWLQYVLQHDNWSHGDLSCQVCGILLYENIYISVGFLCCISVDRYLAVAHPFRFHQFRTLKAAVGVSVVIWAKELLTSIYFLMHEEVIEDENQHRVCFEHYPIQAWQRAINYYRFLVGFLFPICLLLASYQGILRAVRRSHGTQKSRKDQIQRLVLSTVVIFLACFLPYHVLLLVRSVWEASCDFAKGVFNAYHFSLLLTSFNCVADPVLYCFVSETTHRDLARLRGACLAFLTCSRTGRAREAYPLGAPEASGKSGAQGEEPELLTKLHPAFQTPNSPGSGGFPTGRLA
Procedure: Peptide-dependent Ca^2+ mobilization responses were measured in HEK293 stable cell lines (HA-OGR1 (GPR68) and vector pcDNA) ([Saxena et al., 2012]) that were seeded in 96-well plates (1 × 10^5 cells/well) and cultured at 37°C with 5% CO2 to near confluence in DMEM with 10% FBS (Corning). Six hours prior to assay, medium was changed to pH 8.0 or pH 7.4 HAM’s F12 Nutrient Mixture (GIBCO) without FBS and transferred to a 37°C incubator without CO2. One hour prior to stimulation, cells were incubated in pH 8.0 or pH 7.4 HBSS with Ca^2+ and Mg^2+ (GIBCO), supplemented with 15 mM HEPES, 2 μM Fluo-4 AM (Invitrogen) and 1.5 mM probenecid ([…] to prevent Fluo-4 efflux) as described previously ([Pera et al., 2018]). Indicated peptides were pipetted using an automated system and emission signal was recorded at 525 nm after excitation at 485 nm using Flex Station III (Molecular Devices). Ca^2+ mobilization responses were determined by subtracting basal fluorescence from the net peak of agonist-induced fluorescence. Ionomycin (1 μM) was used to calculate the maximum Ca^2+ signal to normalize peptide-mediated responses.

GPR68 [1] = assay: β-arrestin recruitment (Tango); assay type: cell-based, human
Procedure: The peptide library was additionally screened against 120 GPCR targets in parallel, including all available orphan receptors and 27 known class A peptide receptors using the Tango assay platform ([Kroeze et al., 2015]). Briefly, HTLA cells (a HEK293 cell line stably expressing a tTA-dependent luciferase reporter and a β-arrestin2-TEV fusion gene) were plated 10,000 cells/well in poly-L-lysine–coated clear-bottom white 384-well plates in DMEM supplemented with 10% FBS, 100 U/ml penicillin and 100 μg/ml streptomycin, 2 μg/ml puromycin and 100 μg/ml hygromycin B. 24 hr later, cells were transfected with Tango GPCR constructs using the calcium phosphate method ([Jordan et al., 1996]). The next day, culture medium was changed to DMEM + 1% dFBS and 10 μM peptides were added for overnight stimulation. Bright-Glo solution (Promega) was incubated for 15–20 min at room temperature, and luminescence was counted using a Trilux luminescence counter (Wallac).
For subsequent peptide validation experiments using Tango assays, HTLA cells were transiently transfected in 10 cm dishes with the receptor of interest using polyethylenimine (PEI) ([Longo et al., 2013]). […] Assays were performed as described above, with luminescence measured using an EnSpire 2300 Multimode plate reader (PerkinElmer). Luminescence counts were exported into Excel and were analyzed using GraphPad Prism 7.

GPR68 [2] = biological target: T2, GPR68 (Homo sapiens, UniProt Q15743); assay: Dynamic mass redistribution (DMR), concentration-response; assay type: cell-based; design: hIL-2Ra signal peptide (N); expressed in transfected cells; details: GPR68, mean, SEM and n; for EC50: read-out: pEC50, DMR (AUC) (converted)
T2 sequence (Q15743 2-365 limits assumed): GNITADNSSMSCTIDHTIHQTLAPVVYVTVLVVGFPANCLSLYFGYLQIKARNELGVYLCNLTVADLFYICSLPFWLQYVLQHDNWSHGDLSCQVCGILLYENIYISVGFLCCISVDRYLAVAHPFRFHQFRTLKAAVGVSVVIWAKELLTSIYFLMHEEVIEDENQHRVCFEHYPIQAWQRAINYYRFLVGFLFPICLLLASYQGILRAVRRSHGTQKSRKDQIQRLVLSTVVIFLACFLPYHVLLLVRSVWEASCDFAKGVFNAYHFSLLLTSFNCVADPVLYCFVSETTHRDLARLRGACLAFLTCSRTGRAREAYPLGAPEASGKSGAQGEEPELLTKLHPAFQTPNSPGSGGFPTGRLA
In short: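 Doxycycline-induced (0.1 μg/ml) SNAP-tagged receptors in TREx 293 cells, equilibrated 90 min at 22°C in HEPES-buffered HBSS, pH 7.4, with 0.1% DMSO. Peptide-evoked optical wavelength shift recorded for 60 min at 22°C, buffer/solvent corrected and quantified as area under the curve. Mean ± SEM of at least 3 independent experiments.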

GPR68 [3] = biological target: T2, GPR68; assay: Real-time receptor internalization (TR-FRET), concentration-response; assay type: cell-based; design: hIL-2Ra signal peptide (N); expressed in transfected cells; details: GPR68, mean, SEM and n
In short: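 Doxycycline-induced SNAP-tagged receptor cells had surface receptors labelled with Lumi4-Tb and fluorescein-O-acetic acid added. TR-FRET internalization after peptide addition was recorded for 60 min at 37°C (ex 340, em 520/615 nm). Area under the curve, normalized to plate average, gave concentration-response curves.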

CC(C)C[C@H](NC(=O)[C@@H]1CCCN1C(=O)[C@H](Cc1ccccc1)NC(=O)[C@H](C)NC(=O)[C@H](CCC(=O)O)NC(=O)[C@H](C)NC(=O)[C@H](CO)NC(=O)[C@H](CCC(=O)O)NC(=O)[C@H](CC(N)=O)NC(=O)[C@H](CCC(=O)O)NC(=O)[C@H](C)NC(=O)[C@@H](NC(=O)[C@H](CC(N)=O)NC(=O)[C@@H]1CCCN1C(=O)[C@H](Cc1ccc(O)cc1)NC(=O)[C@@H](NC(=O)[C@H](CCCCN)NC(=O)[C@@H](NC(=O)[C@@H]1CCCN1C(=O)[C@H](CCCNC(=N)N)NC(=O)[C@@H](N)CCCNC(=N)N)C(C)C)C(C)C)C(C)C)C(=O)N[C@@H](CCC(=O)O)C(=O)N[C@@H](Cc1ccccc1)C(=O)O [Corticotropin_(17-40)] (H-RRPVKVYPNVAENESAEAFPLEF-OH; N-terminus and C-terminus assumed)
Emax (HA-OGR1 (GPR68)): 63.3% | EC50 (HA-OGR1 (GPR68)): 1820 nM | Comment on response, Tango (fold over basal); Emax and pEC50 n.d. (GPR68 [1]): No response | Emax, DMR (AUC) (GPR68 [2]): 781397.0 | EC50 (GPR68 [2]): 1290 nM | Emax, Internalization (AUC) (GPR68 [3]): 4.7 | pEC50, Internalization (AUC) (GPR68 [3]): Response >1uM

CC[C@H](C)[C@H](NC(=O)[C@H](CCCNC(=N)N)NC(=O)[C@H](C)NC(=O)CNC(=O)[C@H](CCCCN)NC(=O)[C@H](CCCNC(=N)N)NC(=O)[C@@H](NC(=O)[C@H](C)NC(=O)[C@@H]1CSSC[C@H](NC(=O)[C@H](CCSC)NC(=O)[C@@H]2CCCN2C(=O)[C@@H](NC(=O)[C@H](CCC(N)=O)NC(=O)CNC(=O)[C@@H](N)Cc2ccc(O)cc2)C(C)C)C(=O)N[C@@H](CC(=O)O)C(=O)N[C@@H](C)C(=O)NCC(=O)N[C@@H](CCC(=O)O)C(=O)N[C@@H](CCC(N)=O)C(=O)N1)C(C)C)C(N)=O [CART(42-89)_(9-28)] (H-YGQVPMCDAGEQCAVRKGARI-NH2; disulfide 7-13; N-terminus assumed)
Emax (HA-OGR1 (GPR68)): 79.3% | EC50 (HA-OGR1 (GPR68)): 3310 nM | Comment on response, Tango (fold over basal); Emax and pEC50 n.d. (GPR68 [1]): No response | Emax, DMR (AUC) (GPR68 [2]): 944453.3 | EC50 (GPR68 [2]): 1050 nM | Emax, Internalization (AUC) (GPR68 [3]): 9.4 | EC50 (GPR68 [3]; read-out: pEC50, Internalization (AUC) (converted)): 3550 nM

Source: paper PMC6838683, “Discovery of Human Signaling Systems: Pairing Peptides to G Protein-Coupled Receptors” (Cell, 2019)
